What was measured:
[1] = molecular target: T1, RpfC (full-length, in liposomes) (Xanthomonas campestris, UniProt P0C0F7); experiment: […] autophosphorylation assay, RpfC liposomes; type: biochemical; conditions: activation of autokinase; 100 µM ATP, pH 7.8, 5 mM MgCl2, 28 °C
[2] = molecular target: T1, RpfC (full-length, in liposomes); experiment: label-free microscale thermophoresis, RpfC liposomes; type: binding; conditions: 50 mM Tris-HCl pH 7.8, 150 mM NaCl, 10 mM MgCl2, 0.1% Pluronic F-127

T1 sequence (P0C0F7 whole entry): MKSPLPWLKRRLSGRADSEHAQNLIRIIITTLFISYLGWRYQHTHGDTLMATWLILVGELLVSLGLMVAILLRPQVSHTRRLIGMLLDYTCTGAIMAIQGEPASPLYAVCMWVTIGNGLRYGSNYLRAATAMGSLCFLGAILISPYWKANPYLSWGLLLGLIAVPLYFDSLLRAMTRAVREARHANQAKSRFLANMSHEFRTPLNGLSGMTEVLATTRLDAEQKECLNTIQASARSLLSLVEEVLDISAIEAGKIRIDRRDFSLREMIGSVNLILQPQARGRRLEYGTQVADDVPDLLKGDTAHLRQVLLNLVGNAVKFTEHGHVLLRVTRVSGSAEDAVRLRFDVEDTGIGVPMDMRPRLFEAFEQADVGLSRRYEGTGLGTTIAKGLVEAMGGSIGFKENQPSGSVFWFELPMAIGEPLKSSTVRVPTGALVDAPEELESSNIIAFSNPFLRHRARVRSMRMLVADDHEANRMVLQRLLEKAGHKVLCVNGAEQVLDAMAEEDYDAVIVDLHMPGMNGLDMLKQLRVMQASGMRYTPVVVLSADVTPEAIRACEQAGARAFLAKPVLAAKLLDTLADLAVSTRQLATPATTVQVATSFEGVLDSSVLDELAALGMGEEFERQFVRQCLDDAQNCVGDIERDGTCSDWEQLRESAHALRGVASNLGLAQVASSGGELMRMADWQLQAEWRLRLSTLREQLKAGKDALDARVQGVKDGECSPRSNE

EC50 [1]	Kd [2]	SMILES
~0.06 µM		CCCCCCCCC/C=C\C(=O)O [BDSF, cis-2-dodecenoic acid]
1.11 µM	11.2 ± 0.95 µM	CCCCCCCCC/C=C/C(=O)O [trans-BDSF]

Reference: article doi:10.1101/2022.01.03.474871v1 (biorxiv, 2022)
